Results published in US20210222181A1, “BACTERIAL VECTORS FOR GENETIC MANIPULATION OF BACTERIA” (BIOVERSYS AG, priority 2018, published 2021).

Test system: clinical P. aeruginosa strains
Experiment: Inhibition of motility of clinical P. aeruginosa strains on LB-agar plates
Type: cell-based, Pseudomonas aeruginosa
Conditions: three clinical isolates of P. aeruginosa, 10 μg/ml C15 in LB-agar, 16 h at 37° C., compared with absence of C15
Description: Motility of clinical P. aeruginosa strains was inhibited by 12-Methyl-tetradecanoic acid (C15). Three different clinical isolates of P. aeruginosa were plated on LB-agar plates in the absence (FIG. 9, left) and presence (FIG. 9, right) of 10 μg/ml C15 to inhibit cellular motility. The plates were incubated for 16 h at 37° C. […] In contrast, in the absence of C15, the colonies are diffuse and swarm into each other, making the selection of distinct single colonies in the knock-out screening process very difficult.

## CCC(C)CCCCCCCCCCC(=O)O (centres unmarked) [C15, 12-Methyl-tetradecanoic acid]
  cellular motility / colony morphology on Luria Bertani agar plates: inhibited the cellular motility, leading to small well-defined colonies
Listed as 12-Methyl-tetradecanoic acid (C15)
  cellular motility / colony morphology on Luria Bertani agar plates: Inhibition of the motility
